In US20240101540A1, “TARGETED PROTEIN DEGRADATION OF PARP14 FOR USE IN THERAPY” (Ribon Therapeutics, Inc., priority 2022, published 2024):

Biological target: T1, catalytic domain of human PARP14 (residues 1611 to 1801) with NanoLuc tag (Homo sapiens, UniProt Q460N5)
T1 construct: expressed in transfected cells; host or cells: HEK-293T cells (ATCC), pcDNA3.1(-) vector
T1 sequence (Q460N5 1611-1801): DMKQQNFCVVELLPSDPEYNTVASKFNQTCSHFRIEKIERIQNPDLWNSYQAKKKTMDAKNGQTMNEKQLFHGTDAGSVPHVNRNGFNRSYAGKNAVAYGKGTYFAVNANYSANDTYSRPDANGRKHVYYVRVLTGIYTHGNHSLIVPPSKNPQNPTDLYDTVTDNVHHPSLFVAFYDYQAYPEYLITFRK
Experiment: NanoLuc assay for the degradation of PARP14 (NanoLuc-tagged PARP14 overexpressed in HEK-293T cells, 2 hours)
Format: cell-based
Conditions: Assay A (Example A): NanoLuc-tagged PARP14 degradation in HEK-293T cells, read-out: DC50
Procedure: The insert also contained a NanoLuc tag on the N terminus of the PARP14 protein.
Degradation of PARP14 protein was assessed using measurement of the NanoLuc tag as proxy for the PARP14 protein. […] Plasmid DNA was diluted in empty vector DNA then added to 1.163 mL of phenol red free OptiMEM (Thermo Fisher). Plasmid DNA concentrations used in each assay described in Table 1. The plasmid DNA was mixed with 78.5 μL of Fugene HD (Promega) and allowed to incubate 5 minutes.
The transfection was incubated for 24 hrs at 37 degrees in an incubator supplemented with 5% CO2. The cells were then trypsinized and brought up in phenol red free OptiMEM media. […] 40 nL of a dose response curve diluted in DMSO of each test compound was added to the cell plate using a Mosquito (TTP Labtech) and the plate was incubated at 37° C. for 2 hours. Assay plate was brought to room temperature then 20 μL per well of NanoGlo (Promega) was added to the plate. Luminescence was measured on an Envision (Perkin Elmer).
The average DMSO was calculated from 32 wells containing 0.1% DMSO only in columns 12 and 24 of the assay plate. The % of DMSO values were calculated as described below: […]
The % of DMSO values were plotted as a function of compound concentration and the following 4-parameter fit was applied to derive the DC50 values:
where top, bottom, and Hill Coefficient are allowed to float. Y is the % of DMSO and X is the compound concentration
DC50 data for the Example compounds is provided below in Table 2 (“+” is <0.1 μM; “++” is ≥0.1 μM and <1 μM; and “+++” is ≥1 μM).

Row | DC50 [nM] | SMILES
1 | < 100 | O=C1CC[C@H](Nc2ccc(N3CCN(CCN4CCC(COc5cc(F)c6c(=O)[nH]c(CSC7CCOCC7)nc6c5)CC4)CC3)cc2)C(=O)N1 (single isomer, unassigned) [Example 48a]
2 | < 100 | O=C1CC[C@@H](Nc2ccc(N3CCN(CCN4CCC(COc5cc(F)c6c(=O)[nH]c(CSC7CCOCC7)nc6c5)CC4)CC3)cc2)C(=O)N1 (single isomer, unassigned) [Example 48b]
3 | < 100 | O=C(CN1CCC(COc2cc(F)c3c(=O)[nH]c(CSC4CCOCC4)nc3c2)CC1)NCCCCCCNc1cccc2c1C(=O)N(C1CCC(=O)NC1=O)C2=O (stereo not drawn) [Example 1, N-(6-((2-(2,6-dioxopiperidin-3-yl)-1,3-dioxoisoindolin-4-yl)amino)hexyl)-2-(4-(((5-fluoro-4-oxo-2-(((tetrahydro-2H-pyran-4-yl)thio)methyl)-3,4-dihydroquinazolin-7-yl)oxy)methyl)piperidin-1-yl)acetamide]
4 | < 100 | O=C(CN1CCC(COc2cc(F)c3c(=O)[nH]c(CSC4CCOCC4)nc3c2)CC1)NCCNc1cccc2c1C(=O)N(C1CCC(=O)NC1=O)C2=O (stereo not drawn) [Example 2, N-(2-((2-(2,6-dioxopiperidin-3-yl)-1,3-dioxoisoindolin-4-yl)amino)ethyl)-2-(4-(((5-fluoro-4-oxo-2-(((tetrahydro-2H-pyran-4-yl)thio)methyl)-3,4-dihydroquinazolin-7-yl)oxy)methyl)piperidin-1-yl)acetamide]
5 | < 100 | O=C(CN1CCC(COc2cc(F)c3c(=O)[nH]c(CSC4CCOCC4)nc3c2)CC1)NCCCCCCCCNc1cccc2c1C(=O)N(C1CCC(=O)NC1=O)C2=O (stereo not drawn) [Example 3, N-(8-((2-(2,6-dioxopiperidin-3-yl)-1,3-dioxoisoindolin-4-yl)amino)octyl)-2-(4-(((5-fluoro-4-oxo-2-(((tetrahydro-2H-pyran-4-yl)thio)methyl)-3,4-dihydroquinazolin-7-yl)oxy)methyl)piperidin-1-yl)acetamide]
6 | < 100 | O=C1CCC(N2C(=O)c3cccc(NCCOCCOCCC(=O)N4CCC(COc5cc(F)c6c(=O)[nH]c(CSC7CCOCC7)nc6c5)CC4)c3C2=O)C(=O)N1 (stereo not drawn) [Example 4, 2-(2,6-dioxopiperidin-3-yl)-4-((2-(2-(3-(4-(((5-fluoro-4-oxo-2-(((tetrahydro-2H-pyran-4-yl)thio)methyl)-3,4-dihydroquinazolin-7-yl)oxy)methyl)piperidin-1-yl)-3-oxopropoxy)ethoxy)ethyl)amino)isoindoline-1,3-dione]
7 | < 100 | O=C1CCC(N2C(=O)c3cccc(NCCC(=O)N4CCC(COc5cc(F)c6c(=O)[nH]c(CSC7CCOCC7)nc6c5)CC4)c3C2=O)C(=O)N1 (stereo not drawn) [Example 5, 2-(2,6-dioxopiperidin-3-yl)-4-((3-(4-(((5-fluoro-4-oxo-2-(((tetrahydro-2H-pyran-4-yl)thio)methyl)-3,4-dihydroquinazolin-7-yl)oxy)methyl)piperidin-1-yl)-3-oxopropyl)amino)isoindoline-1,3-dione]
8 | < 100 | O=C1CCC(N2C(=O)c3cccc(NCC(=O)N4CCC(COc5cc(F)c6c(=O)[nH]c(CSC7CCOCC7)nc6c5)CC4)c3C2=O)C(=O)N1 (stereo not drawn) [Example 6, 2-(2,6-dioxopiperidin-3-yl)-4-((2-(4-(((5-fluoro-4-oxo-2-(((tetrahydro-2H-pyran-4-yl)thio)methyl)-3,4-dihydroquinazolin-7-yl)oxy)methyl)piperidin-1-yl)-2-oxoethyl)amino)isoindoline-1,3-dione]
9 | < 100 | O=C(CN1CCC(COc2cc(F)c3c(=O)[nH]c(CSC4CCOCC4)nc3c2)CC1)NCCOCCOCCNc1cccc2c1C(=O)N(C1CCC(=O)NC1=O)C2=O (stereo not drawn) [Example 7, N-(2-(2-(2-((2-(2,6-dioxopiperidin-3-yl)-1,3-dioxoisoindolin-4-yl)amino)ethoxy)ethoxy)ethyl)-2-(4-(((5-fluoro-4-oxo-2-(((tetrahydro-2H-pyran-4-yl)thio)methyl)-3,4-dihydroquinazolin-7-yl)oxy)methyl)piperidin-1-yl)acetamide]
10 | < 100 | O=C(CN1CCC(COc2cc(F)c3c(=O)[nH]c(CSC4CCOCC4)nc3c2)CC1)NCCCCNc1cccc2c1C(=O)N(C1CCC(=O)NC1=O)C2=O (stereo not drawn) [Example 8, N-(4-((2-(2,6-dioxopiperidin-3-yl)-1,3-dioxoisoindolin-4-yl)amino)butyl)-2-(4-(((5-fluoro-4-oxo-2-(((tetrahydro-2H-pyran-4-yl)thio)methyl)-3,4-dihydroquinazolin-7-yl)oxy)methyl)piperidin-1-yl)acetamide]
11 | < 100 | O=C1CCC(N2C(=O)c3cccc(NCCCCCCCCC(=O)N4CCC(COc5cc(F)c6c(=O)[nH]c(CSC7CCOCC7)nc6c5)CC4)c3C2=O)C(=O)N1 (stereo not drawn) [Example 9, 2-(2,6-dioxopiperidin-3-yl)-4-((9-(4-(((5-fluoro-4-oxo-2-(((tetrahydro-2H-pyran-4-yl)thio)methyl)-3,4-dihydroquinazolin-7-yl)oxy)methyl)piperidin-1-yl)-9-oxononyl)amino)isoindoline-1,3-dione]
12 | < 100 | O=C1CCC(N2C(=O)c3cccc(NCCCOCCC(=O)N4CCC(COc5cc(F)c6c(=O)[nH]c(CSC7CCOCC7)nc6c5)CC4)c3C2=O)C(=O)N1 (stereo not drawn) [Example 10, 2-(2,6-dioxopiperidin-3-yl)-4-((3-(3-(4-(((5-fluoro-4-oxo-2-(((tetrahydro-2H-pyran-4-yl)thio)methyl)-3,4-dihydroquinazolin-7-yl)oxy)methyl)piperidin-1-yl)-3-oxopropoxy)propyl)amino)isoindoline-1,3-dione]
13 | < 100 | O=C1CCC(N2C(=O)c3cccc(NCCCCCCC(=O)N4CCC(COc5cc(F)c6c(=O)[nH]c(CSC7CCOCC7)nc6c5)CC4)c3C2=O)C(=O)N1 (stereo not drawn) [Example 11, 2-(2,6-dioxopiperidin-3-yl)-4-((7-(4-(((5-fluoro-4-oxo-2-(((tetrahydro-2H-pyran-4-yl)thio)methyl)-3,4-dihydroquinazolin-7-yl)oxy)methyl)piperidin-1-yl)-7-oxoheptyl)amino)isoindoline-1,3-dione]
14 | < 100 | O=C1CCC(N2C(=O)c3cccc(NCCCCC(=O)N4CCC(COc5cc(F)c6c(=O)[nH]c(CSC7CCOCC7)nc6c5)CC4)c3C2=O)C(=O)N1 (stereo not drawn) [Example 12, 2-(2,6-dioxopiperidin-3-yl)-4-((5-(4-(((5-fluoro-4-oxo-2-(((tetrahydro-2H-pyran-4-yl)thio)methyl)-3,4-dihydroquinazolin-7-yl)oxy)methyl)piperidin-1-yl)-5-oxopentyl)amino)isoindoline-1,3-dione]
15 | < 100 | O=C(CN1CCC(COc2cc(F)c3c(=O)[nH]c(CSC4CCOCC4)nc3c2)CC1)NCCOCCCNc1cccc2c1C(=O)N(C1CCC(=O)NC1=O)C2=O (stereo not drawn) [Example 13, N-(2-(3-((2-(2,6-dioxopiperidin-3-yl)-1,3-dioxoisoindolin-4-yl)amino)propoxy)ethyl)-2-(4-(((5-fluoro-4-oxo-2-(((tetrahydro-2H-pyran-4-yl)thio)methyl)-3,4-dihydroquinazolin-7-yl)oxy)methyl)piperidin-1-yl)acetamide]
16 | < 100 | O=C1CCC(N2C(=O)c3ccc(NCC(=O)N4CCC(COc5cc(F)c6c(=O)[nH]c(CSC7CCOCC7)nc6c5)CC4)cc3C2=O)C(=O)N1 (stereo not drawn) [Example 14, 2-(2,6-dioxopiperidin-3-yl)-5-((2-(4-(((5-fluoro-4-oxo-2-(((tetrahydro-2H-pyran-4-yl)thio)methyl)-3,4-dihydroquinazolin-7-yl)oxy)methyl)piperidin-1-yl)-2-oxoethyl)amino)isoindoline-1,3-dione]

Row | SMILES | DC50 [nM]
17 | O=C1CCC(N2C(=O)c3cccc(OC4CC(CN5CCC(COc6cc(F)c7c(=O)[nH]c(CSC8CCOCC8)nc7c6)CC5)C4)c3C2=O)C(=O)N1 (single isomer, unassigned) [Example 80a, 2-(2,6-dioxopiperidin-3-yl)-4-((1r,3r)-3-((4-(((5-fluoro-4-oxo-2-(((tetrahydro-2H-pyran-4-yl)thio)methyl)-3,4-dihydroquinazolin-7-yl)oxy)methyl)piperidin-1-yl)methyl)cyclobutoxy)isoindoline-1,3-dione] | < 100
18 | O=C1CCC(N2C(=O)c3cccc(OC4CC(CN5CCC(COc6cc(F)c7c(=O)[nH]c(CSC8CCOCC8)nc7c6)CC5)C4)c3C2=O)C(=O)N1 (single isomer, unassigned) [Example 80b, 2-(2,6-dioxopiperidin-3-yl)-4-((1s,3s)-3-((4-(((5-fluoro-4-oxo-2-(((tetrahydro-2H-pyran-4-yl)thio)methyl)-3,4-dihydroquinazolin-7-yl)oxy)methyl)piperidin-1-yl)methyl)cyclobutoxy)isoindoline-1,3-dione] | < 100
